Laboratory results: US8137509B2, “Asymmetric synthesis of rocaglamides via enantioselective photocycloaddition mediated by chiral brønsted acids” (Trustees of Boston University, priority 2006, dated 2012)

What was measured:
human cancer cells = conditions: compared with TAXOL; cited from earlier work

Compound	melting point [°C]	cytotoxic activity (human cancer cells)
COC(=O)C1C(c2ccccc2)[C@]2(c3ccc(OC)cc3)Oc3cc(OC)cc(OC)c3[C@@]1(O)C2=O (some centres unmarked)	83 to 85	–
COC(=O)[C@H]1[C@@H](O)[C@@]2(O)c3c(OC)cc(O[C@@H]4O[C@@H]([C@H](O)CO)CO[C@H]4OC)cc3O[C@@]2(c2ccc(OC)cc2)[C@@H]1c1ccccc1 [silvestrol B, silvestrol]	–	comparable to the anticancer drug TAXOL®
